Patent US7572606B1 (Nereus Pharmaceuticals, Inc., priority 2005, dated 2009)

Tests used:
HEK293 = experiment: Cell growth inhibition, resazurin, 48 h; assay type: cell-based; settings: Homo sapiens; HEK293, 48 h drug exposure
CCD-27sk = experiment: Cytotoxic activity, 48 h, normal fibroblasts; assay type: cell-based; settings: CCD-27sk normal human fibroblasts
B16-F10 = experiment: Cell growth inhibition, resazurin, 48 h; assay type: cell-based, mouse; settings: B16-F10, 48 h drug exposure
Experimental: RPMI 8226 (CCL-155), HT-29 (HTB-38), and B16-F10 (CRL-6475) cells were purchased from ATCC. RPMI 8226 cells were maintained in RPMI 1640 media supplemented with 10% (v/v) FBS, 2 mM L-glutamine, 1 mM sodium pyruvate and Penicillin/Streptomycin at 100 IU/ml and 100 μg/ml, respectively. HT-29 cells were maintained in McCoys 5A supplemented with 10% (v/v) FBS, 2 mM L-glutamine, 1 mM sodium pyruvate, 1% (v/v) non-essential amino acids, 10 mM HEPES and Penicillin/Streptomycin at 100 IU/ml and 100 μg/ml, respectively. B16-F10 cells were maintained in DMEM supplemented with 10% (v/v) FBS, 2 mM L-glutamine, 10 mM HEPES and Penicillin/Streptomycin at 100 IU/ml and 100 μg/ml, respectively.
RPMI 8226 cells were seeded at 2×10^4 cells/well in 90 μl RPMI media containing 10% (v/v) FBS or 1% (v/v) FBS into 96 well black-walled, clear-bottom tissue culture plates. […] Formulae II-16, II-17 and Formula II-18 were serially diluted in media containing 1% or 10% FBS and added in triplicate to the test wells. […] The final concentration of Formula II-18 ranged from 2 μM to 630 pM.

[1] = Maximum Tolerated Dose (MTD) determination; assay type: in vivo, female BALB/c mice
Source text: In vivo studies were designed to determine the MTD of Salinosporamide A when administered intravenously to female BALB/c mice.
Animals were observed daily for clinical signs and were weighed individually twice weekly until the end of the experiment (maximum of 14 days after the last day of dosing).

[2] = test system: Caspase-3 activity in Jurkat cells; experiment: Caspase-3 activity assay (EnzChek); assay type: cell-based, human; settings: EC50 concentration, 19 hours
Experimental: Jurkat cells were plated at 2×10^6 cells/3 mL per well in a 6-well plate and incubated at 37° C., 5% (v/v) CO2 and 95% (v/v) humidity. […] Bhalla, et al., Blood 82:3133 (1993). […] Cells treated with 0.25% DMSO served as the negative control. The cells were collected by centrifugation and the media removed. Cell pellets were processed for the Caspase-3 activity assay as described in the manufacturer's protocol (EnzChek Caspase-3 Assay Kit from Molecular Probes (E-13183; see Appendix G, which form a part of this application and is also available at hypertext transfer protocol on the worldwide web at “probes.com/media/pis/mp13183.pdf.”. In brief, cell pellets were lysed on ice, mixed with the EnzChek Caspase-3 components in a 96-well plate, and then incubated in the dark for 30 minutes prior to reading fluorescence of cleaved benzyloxycarbonyl-DEVD-AMC using a Packard Fusion with λex=485 nm and λem=530 nm filters. Protein concentrations for lysates were determined using the BCA Protein Assay Kit (Pierce) and these values were used for normalization.

Thrombin = Thrombin (Homo sapiens, UniProt P00734); experiment: Specificity: inhibition of other proteolytic enzymes; assay type: biochemical
[3] = test system: PARP and Pro-Caspase 3 in PC-3 cells; experiment: PARP and Pro-Caspase 3 cleavage, western blot; assay type: cell-based, human; settings: 100 nM for 0, 8 or 24 hours
Experimental: Total protein lysates were made and 20 μg of the lysates were then resolved under reducing/denaturing conditions and blotted onto nitrocellulose. The blots were then probed with anti-PARP or anti-caspase 3 antibodies followed by stripping and reprobing with an anti-actin antibody.

Work on `C[C@@]12OC(=O)[C@]1([C@@H](O)[C@@H]1C=CCCC1)NC(=O)[C@@H]2CCCl` [Formula II-16, Salinosporamide A] yielded an EC50 (HEK293) of 47 nM, an EC50 (CCD-27sk) of 196 nM and an EC50 (B16-F10) of 47 ± 20 nM. The EC50 (B16-F10; Mus musculus, B16-F10, 48 h) was 33 nM, the well tolerated dose ([1]; i.v. daily for five consecutive days) was “up to 0.1 mg/kg” and the tolerated dose ([1]; single intravenous dose) was “up to 0.25 mg/kg”. For the same compound, the Caspase-3 activity [2] was “activation of Caspase-3”, the EC50 (Thrombin) was greater than 200000 nM and the “cleavage of PARP and Pro-Caspase 3” value [3] was “cleavage of PARP is noticeable at 24 hours”.
